This note sets out measurements from ChEMBL document CHEMBL2095176, “GSK Tuberculosis Screening Data”.

Each structure is given as a SMILES string. Converted amounts (≈) assume the structure as drawn.

The test system of this assay is Mycobacterium tuberculosis variant bovis BCG. As to the kind of experiment: microbe, parasite or virus in culture. Format: functional.
Molecule `CC(Oc1ccccc1)C(=O)Nc1nc(-c2ccccn2)cs1` (stereo unspecified) had an MIC90 of 5.4 µM (≈ 1.76 µg/mL).
`Cc1ccc(-c2nnc(C)c(N3CCCC3)n2)cc1` gave an MIC90 of 10 µM (≈ 2.54 µg/mL).
For `CN(Cc1ccccc1)c1ccc2nnc(-c3ccccc3)n2n1` the value was 9.9 µM (≈ 3.12 µg/mL); for `CSc1cccc(-c2nnc(NC(=O)c3ccc(Cl)s3)o2)c1`, 9.6 µM (≈ 3.38 µg/mL).
`O=c1c2snc(-c3ccc(F)cc3)c2ncn1Cc1ccc(F)cc1`: the MIC90 was 9.6 µM (≈ 3.41 µg/mL).
For `Cc1ccc(S(=O)(=O)c2nc(S(=O)(=O)c3ccccc3)sc2Cl)cc1` the value was 9.6 µM (≈ 3.97 µg/mL); for `C=CCNCCS(=O)(=O)c1cccc(Nc2ncc(-c3cccc(F)c3)cn2)c1`, 9.6 µM (≈ 3.96 µg/mL).
With `CCOc1ccc(-c2nnc(NC(=O)c3cnc(Cl)c(Cl)c3)o2)cc1` the figure was 9.6 µM (≈ 3.64 µg/mL).
For `CCOc1cc(OCC)c(C(=O)C(C)C)cc1C(=O)Nc1cccc2c1CCN(C)C2` the value was 9.6 µM (≈ 4.08 µg/mL); for `CCc1ccc(S(=O)(=O)Nc2cc(CN3CCN(CC4CC4)CC3)ccc2C)cc1`, 9.6 µM (≈ 4.11 µg/mL).
In the case of `O=C(CSCc1ccc(Cl)cc1)NNC(=O)c1ccncc1`, the MIC90 turned out to be 9.7 µM (≈ 3.26 µg/mL).
With `CC(=O)N1CCN(Cc2ccc(-c3ccc(NS(=O)(=O)c4ccc(C)cc4)cc3)cc2)CC1` the figure was 9.7 µM (≈ 4.5 µg/mL).
Take `COc1cccc(-c2nc3c(N4CCCC4)cccc3n2CC2CCCN2)n1.O=C(O)C(F)(F)F` (stereo unspecified): the MIC90 came to 5.8 µM.
For `Cn1c(=O)c2c([S+](C)[O-])snc2n(C)c1=O` (stereo unspecified) the value was 5.6 µM (≈ 1.45 µg/mL).
With `Cc1cc(CN2CCCN(c3ncc(-c4ccsc4)c4nc(C(F)(F)F)ccc34)CC2)no1` the figure was 9.8 µM (≈ 4.64 µg/mL).
In the case of `CC1Sc2ccc(C(=O)N3CCCCC3c3nc4ccccc4s3)cc2NC1=O` (stereo unspecified), the MIC90 worked out at 9.8 µM (≈ 4.15 µg/mL).
For `Cc1ccc(CCNC(=O)c2c(-c3ccc(F)cc3F)noc2C)cc1`, the MIC90 was determined as 9.8 µM (≈ 3.49 µg/mL).
With `CCn1c(NC(=O)Cc2ccc(Cl)cc2)nc2ccccc21` the figure was 9.8 µM (≈ 3.08 µg/mL); with `CS(=O)(=O)Nc1cccc(-c2cnc3[nH]cc(-c4cccc(CCN)c4)c3c2)c1`, 9.8 µM (≈ 3.98 µg/mL); with `O=C(CSc1nc(-c2ccccc2)cs1)NNC(=O)c1cccs1`, 9.8 µM (≈ 3.68 µg/mL).
With `O=C(Nc1nnc(-c2ccccc2)o1)c1ccc(Cl)s1` the figure was 9.8 µM (≈ 3 µg/mL); with `Cc1cc(C)cc(Oc2c(C(C)C)c(=O)[nH]c(=O)n2Cc2cc(N)nc(F)c2)c1`, 9.8 µM (≈ 3.9 µg/mL).
Turning to `CN1CCc2c(cccc2NC(=O)c2cc(Br)cc3c2OCC3)C1`, the MIC90 came out at 9.8 µM (≈ 3.8 µg/mL).
With `CN(C)c1ccc(NC(=O)Nc2cccc3ncccc23)cc1` the figure was 9.8 µM (≈ 3 µg/mL).
In turn, `Cc1ccc2nc(SCC(=O)N(C(C)C)C(C)C)[nH]c2c1` came in with an MIC90 of 9.9 µM (≈ 3.02 µg/mL).
For `Cc1ccc2nc(C(F)(F)F)c(C(=O)NCc3ncc(C(F)(F)F)cc3Cl)n2c1` the value was 9.9 µM (≈ 4.32 µg/mL); for `Cc1cc(Br)ccc1-c1ccc(CNCC(C)O)o1` (stereo unspecified), 9.9 µM (≈ 3.21 µg/mL).
For `CSc1nc2ccccc2n1-c1nccc(N2CCN(CCN)CC2)n1` the value was 9.9 µM (≈ 3.66 µg/mL); for `O=C(NNC(=O)c1cccs1)c1ccc(OCc2ccccc2)cc1`, 9.9 µM (≈ 3.49 µg/mL); for `CN(C)CCOc1ccc2c(c1)N(C(=O)Cc1ccc(Cl)c(Cl)c1)CC2`, 9.9 µM (≈ 3.89 µg/mL).
In turn, `CN(C)CCN(Cc1ccc(-c2cccc(CN)c2)cc1)C(=O)CCC1CCCC1` showed an MIC90 of 9.9 µM (≈ 4.04 µg/mL).
With `CCCCNC(=O)c1cccc(-c2ccc(OCc3ccccc3)cc2)c1` the figure was 9.9 µM (≈ 3.56 µg/mL); with `CCCc1ccc(S(=O)(=O)Nc2cc(CN3CCN(CCC)CC3)ccc2C)cc1`, 9.9 µM (≈ 4.25 µg/mL); with `O=C(NCCCn1nc(Cl)c(N2CCCNCC2)cc1=O)c1ccc(-c2ccccc2)cc1`, 10 µM (≈ 4.66 µg/mL).
With `Cc1nn(CC(C)C)c(Cl)c1C(=O)Nc1nc(-c2ccccn2)cs1` the figure was 10 µM (≈ 3.76 µg/mL).
For `Oc1ccc(CCNc2nc(NCc3cccc4ccccc34)nc(NC3CCNCC3)n2)cc1` the value was 10 µM (≈ 4.7 µg/mL).
The molecule `O=C(NC1CCN(Cc2ccccc2)C1)c1cccc(-c2ccc(Cl)cc2)c1` (stereo unspecified) came in with an MIC90 of 10 µM (≈ 3.91 µg/mL).
For `Cc1ccc2c(CC(=O)Nc3nc(-c4ccccn4)cs3)coc2c1` the value was 10 µM (≈ 3.49 µg/mL); for `Oc1nc(-c2ccccn2)nc(C(F)(F)F)c1Br`, 9.6 µM (≈ 3.07 µg/mL); for `CNC1=NC(=O)[C@H]([C@H](C)c2c[nH]c3ccccc23)O1` [INDOMYCIN], 5 µM (≈ 1.29 µg/mL).
With `Cn1cc(NC(=O)c2cc(NC(=O)CNC(=N)N)cn2C)cc1C(=O)NCCC(=N)N` [NETROPSIN CHLORIDE] the figure was 3.6 µM.
